Test results from patent US20260077051A1, “COMPOUNDS FOR THE DEGRADATION OF EGFR KINASE” (BeOne Medicines I GmbH, priority 2023, published 2026).

Tests used:
[1] = target: T1, EGFR-L858R/C797S (H1975-clone #8 cells) (Homo sapiens, UniProt P00533, C797S/L858R); test: EGFR degradation in H1975-clone#8 (L858R/C797S) cells (HTRF assay); assay type: cell-based; conditions: 16 h treatment; for DC50: IC50(DC50) of EGFR degradation; for Dmax: maximum percentage of inhibition (degradation)
T1 construct: expressed in transfected cells; host or cells: H1975 (lentiviral transduction, endogenous EGFR knocked out, single clone #8)
Procedure: H1975-clone #8 (L858R/C797S): EGFR-L858R/C797S were stably expressed in H1975 cell lines by lentivirus-mediated over-expression, respectively. The EGFR over-expressed cells then underwent knockout, in which the EGFR targeting sgRNA was designed to only target the endogenous EGFR copies and preserve the exogenous EGFR copies. Followed by the knockout, the edited H1975 cells were seeded in 96 well plates at the concentration of […], cultured for about 2 weeks to allow single clones formation. The formed clones were screened by DNA sequencing and whole exon sequencing analysis for the desired edition. H1975-clone #8 were finally confirmed as homozygous L858R/C797S EGFR clones.
(§1) H1975-#8 and BaF3-L858R cells are treated with compounds diluted in 0.1% DMSO cell culture medium on day 2, incubate for 16 h, 37° C., 5% CO2. the final concentration of compounds in all assay is start with 10 uM, 5-fold dilution, total 8 doses were included.
(§2) After 16 h treatment, for H1975-#8 cells, add 100 ul HTRF 1× lysis buffer to each well; for BaF3-L858R cells, add 20 μl 4× lysis buffer to each well; seal the plate and incubate 1 hour at room temperature on a plate shaker; Once the cells are lysed, 16 μL of cell lysate are transferred to a PE 384-well HTRF detection plate; 4 μL of pre-mixed HTRF antibodies are added to each well; Cover the plate with a plate sealer, spin 1000 rpm for 1 min, Incubate overnight at room temperature; Read on BMG PheraStar with HTRF protocol (337 nm-665 nm-620 nm).
(§3) The inhibition (degradation) percentage of the compound was calculated by the following equation:
(§4) High control=Cell group with added DMSO and without compound, indicating microplate readings without EGFR degradation;
(§5) Dmax is the maximum percentage of inhibition (degradation).
(§6) The IC50(DC50) value of a compound can be obtained by fitting the following equation
(§7) Wherein, X and Y are known values, and IC50, Hillslope, Top and Bottom are the parameters obtained by fitting with software. Y is the inhibition percentage (calculated from the equation), X is the concentration of the compound; IC50 is the concentration of the compound when the 50% inhibition is reached. The smaller the IC50 value is, the stronger the inhibitory ability of the compound is. Vice versa, the higher the IC50 value is, the weaker the ability the inhibitory ability of the compound is; Hillslope represents the slope of the fitted curve, generally around 1*; Bottom represents the minimum value of the curve obtained by data fitting, which is generally 0%±20%; Top represents the maximum value of the curve obtained by data fitting, which is generally 100%±20%. The experimental data were fitted by calculating and analyzing with Dotmatics data analysis software.

[2] = target: T2, EGFR L858R (BaF3-L858R cells) (Homo sapiens, UniProt P00533, L858R); test: EGFR degradation in BaF3-L858R cells (HTRF assay); assay type: cell-based; conditions: 16 h treatment; for DC50: IC50(DC50) of EGFR degradation; for Dmax: maximum percentage of inhibition (degradation)
T2 construct: host or cells: BaF3
Procedure: BaF3-L858R (abbv. L858R) cell were purchased from Kangyuan Bochuang Biotechnology (Beijing) Co., Ltd.
as §1, §2, §3, §4, §5, §6, §7

T2 sequence (P00533 25-1210 L858R): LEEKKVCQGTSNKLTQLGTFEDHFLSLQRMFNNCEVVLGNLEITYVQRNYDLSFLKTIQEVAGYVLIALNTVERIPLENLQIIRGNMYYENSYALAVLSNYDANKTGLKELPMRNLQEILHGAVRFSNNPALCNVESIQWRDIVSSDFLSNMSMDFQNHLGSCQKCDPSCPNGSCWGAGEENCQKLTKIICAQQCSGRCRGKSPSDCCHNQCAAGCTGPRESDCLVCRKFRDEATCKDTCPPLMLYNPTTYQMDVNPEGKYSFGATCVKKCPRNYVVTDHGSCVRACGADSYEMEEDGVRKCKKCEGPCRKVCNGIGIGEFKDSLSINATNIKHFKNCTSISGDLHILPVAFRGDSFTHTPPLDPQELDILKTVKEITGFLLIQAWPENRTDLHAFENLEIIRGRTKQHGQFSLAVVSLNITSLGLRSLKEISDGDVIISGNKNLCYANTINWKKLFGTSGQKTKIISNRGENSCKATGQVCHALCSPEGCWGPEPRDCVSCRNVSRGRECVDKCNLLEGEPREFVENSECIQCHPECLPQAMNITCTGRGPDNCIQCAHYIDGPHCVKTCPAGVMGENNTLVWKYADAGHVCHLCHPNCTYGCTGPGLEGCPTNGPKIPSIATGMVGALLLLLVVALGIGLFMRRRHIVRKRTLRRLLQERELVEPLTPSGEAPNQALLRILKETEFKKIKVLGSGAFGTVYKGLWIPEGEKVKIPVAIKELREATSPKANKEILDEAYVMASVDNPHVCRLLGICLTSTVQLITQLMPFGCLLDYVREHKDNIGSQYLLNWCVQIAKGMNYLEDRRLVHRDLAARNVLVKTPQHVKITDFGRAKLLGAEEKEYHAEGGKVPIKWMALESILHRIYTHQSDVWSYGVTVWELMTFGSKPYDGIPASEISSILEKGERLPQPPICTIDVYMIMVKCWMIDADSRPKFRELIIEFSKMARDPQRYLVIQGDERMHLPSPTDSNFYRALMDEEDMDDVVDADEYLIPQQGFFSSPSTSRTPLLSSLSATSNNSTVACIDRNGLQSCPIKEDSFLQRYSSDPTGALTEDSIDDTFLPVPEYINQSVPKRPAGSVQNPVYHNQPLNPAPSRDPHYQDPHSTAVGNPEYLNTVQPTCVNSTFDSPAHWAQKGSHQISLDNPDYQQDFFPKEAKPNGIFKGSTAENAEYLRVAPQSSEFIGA
T1 sequence (P00533 25-1210 C797S/L858R): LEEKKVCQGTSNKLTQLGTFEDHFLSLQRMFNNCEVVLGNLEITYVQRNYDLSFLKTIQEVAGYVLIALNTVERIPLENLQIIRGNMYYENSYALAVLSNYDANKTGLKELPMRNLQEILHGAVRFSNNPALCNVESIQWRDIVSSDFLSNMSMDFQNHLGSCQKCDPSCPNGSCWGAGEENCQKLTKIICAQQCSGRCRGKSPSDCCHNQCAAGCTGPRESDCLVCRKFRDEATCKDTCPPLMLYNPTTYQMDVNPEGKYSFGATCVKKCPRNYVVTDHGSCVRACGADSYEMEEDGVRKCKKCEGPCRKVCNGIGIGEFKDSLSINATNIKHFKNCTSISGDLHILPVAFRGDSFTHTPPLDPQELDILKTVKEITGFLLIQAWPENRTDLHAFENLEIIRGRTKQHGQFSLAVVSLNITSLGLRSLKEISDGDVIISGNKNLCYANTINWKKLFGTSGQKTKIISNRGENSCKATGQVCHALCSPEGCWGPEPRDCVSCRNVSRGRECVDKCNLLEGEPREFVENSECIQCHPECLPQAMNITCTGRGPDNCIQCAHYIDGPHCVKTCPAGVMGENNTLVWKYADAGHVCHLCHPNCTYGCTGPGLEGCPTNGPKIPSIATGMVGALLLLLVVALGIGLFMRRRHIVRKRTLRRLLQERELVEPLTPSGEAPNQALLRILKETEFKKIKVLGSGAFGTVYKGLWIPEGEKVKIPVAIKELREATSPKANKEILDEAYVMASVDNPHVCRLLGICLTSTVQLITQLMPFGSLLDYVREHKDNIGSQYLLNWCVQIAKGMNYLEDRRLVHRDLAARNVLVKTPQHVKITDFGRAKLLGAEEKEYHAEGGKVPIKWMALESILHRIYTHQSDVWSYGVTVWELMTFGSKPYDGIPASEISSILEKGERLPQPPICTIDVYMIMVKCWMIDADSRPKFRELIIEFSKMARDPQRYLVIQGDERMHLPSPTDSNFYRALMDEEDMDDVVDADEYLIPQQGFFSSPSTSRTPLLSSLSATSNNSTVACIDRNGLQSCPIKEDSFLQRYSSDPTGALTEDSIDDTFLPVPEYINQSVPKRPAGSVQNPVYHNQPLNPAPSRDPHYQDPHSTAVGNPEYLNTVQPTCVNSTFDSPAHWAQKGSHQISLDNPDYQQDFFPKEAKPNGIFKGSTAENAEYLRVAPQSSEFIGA

DC50 [1] [nM] | Dmax [1] [%] | DC50 [2] [nM] | Dmax [2] [%] | SMILES
0.612 | 76.8 | 0.69 | 93.8 | Cc1cc2cc(n1)-c1cnn(C)c1OCC[C@]1(C)C[C@H]1CN1/C(=N/C2=O)Nc2ccc(N3CCN([C@H]4CCN(c5ccc(C6CCC(=O)NC6=O)nc5C)C[C@H]4F)CC3)cc21 (stereo partly drawn) [Example 62, 3-(5-((3R,4S)-3-fluoro-4-(4-((7^1R,7^2S,E)-1^1,2^6,7^2-trimethyl-3-oxo-5^2,5^3-dihydro-1^1H,5^1H-10-oxa-4-aza-5 (2,1)-benzo[d]imidazola-2 (2,4)-pyridina-1 (4,5)-pyrazola-7 (1,2)-cyclopropanacyclodecaphane-5^6-yl)piperazin-1-yl)piperidin-1-yl)-6-methylpyridin-2-yl)piperidine-2,6-dione]
8.34 | 55.9 | 7.92 | 64.5 | Cc1cc2cc(n1)-c1cnn(C)c1OCC[C@H]1C[C@@H]1CN1/C(=N/C2=O)Nc2ccc(N3CCN(C4CN(C5CCN(c6ccc(C7CCC(=O)NC7=O)nc6C)CC5)C4)C[C@H]3C)cc21 (stereo partly drawn) [Example 37, 3-(5-(4-(3-((R)-4-((7^1S,7^2R,E)-1^1,2^6-dimethyl-3-oxo-5^2,5^3-dihydro-1^1H,5^1H-10-oxa-4-aza-5 (2,1)-benzo[d]imidazola-2 (2,4)-pyridina-1 (4,5)-pyrazola-7 (1,2)-cyclopropanacyclodecaphane-5^6-yl)-3-methylpiperazin-1-yl)azetidin-1-yl)piperidin-1-yl)-6-methylpyridin-2-yl)piperidine-2,6-dione]
2.11 | 77.7 | 3.35 | 91.9 | Cc1cc2cc(n1)-c1cnn(C)c1OCC[C@]1(C)C[C@H]1CN1/C(=N/C2=O)Nc2ccc(N3CCN(C4CCN(c5cc(F)c(C6CCC(=O)NC6=O)nc5C)CC4)CC3)cc21 (some centres unmarked) [Example 54, 3-(3-fluoro-6-methyl-5-(4-(4-((7^1R,7^2S,E)-1^1,2^6,7^2-trimethyl-3-oxo-5^2,5^3-dihydro-1^1H,5^1H-10-oxa-4-aza-5 (2,1)-benzo[d]imidazola-2 (2,4)-pyridina-1 (4,5)-pyrazola-7 (1,2)-cyclopropanacyclodecaphane-5^6-yl)piperazin-1-yl)piperidin-1-yl)pyridin-2-yl)piperidine-2,6-dione]
1.44 | 51.8 | 7.62 | 71.2 | Cc1cc2cc(n1)-c1cnn(C)c1OCC[C@H]1C[C@@H]1CN1/C(=N/C2=O)Nc2ccc(N3CCN([C@H]4CCN(c5cnc(C6CCC(=O)NC6=O)cc5C)C[C@H]4F)CC3)cc21 (stereo partly drawn) [Example 11, 3-(5-((3R,4S)-4-(4-((7^1S,7^2R,E)-1^1,2^6-dimethyl-3-oxo-5^2,5^3-dihydro-1^1H,5^1H-10-oxa-4-aza-5 (2,1)-benzo[d]imidazola-2 (2,4)-pyridina-1 (4,5)-pyrazola-7 (1,2)-cyclopropanacyclodecaphane-5^6-yl)piperazin-1-yl)-3-fluoropiperidin-1-yl)-4-methylpyridin-2-yl)piperidine-2,6-dione]
9.56 | 69.3 | 4.61 | 89.5 | CCc1nc(C2CCC(=O)NC2=O)ccc1N1CC[C@H](N2CCN(c3ccc4c(c3)N3C[C@H]5C[C@@H]5CCOc5c(cnn5C)-c5cc(cc(C)n5)C(=O)/N=C/3N4)CC2)[C@H](F)C1 (stereo partly drawn) [Example 31, 3-(5-((3R,4S)-4-(4-((7^1S,7^2R,E)-1^1,2^6-dimethyl-3-oxo-5^2,5^3-dihydro-1^1H,5^1H-10-oxa-4-aza-5 (2,1)-benzo[d]imidazola-2 (2,4)-pyridina-1 (4,5)-pyrazola-7 (1,2)-cyclopropanacyclodecaphane-5^6-yl)piperazin-1-yl)-3-fluoropiperidin-1-yl)-6-ethylpyridin-2-yl)piperidine-2,6-dione]
16 | 54.4 | 18.4 | 73.6 | Cc1cc2cc(n1)-c1cnn(C)c1OCC[C@H]1C[C@@H]1CN1/C(=N/C2=O)Nc2ccc(N3CCN([C@@H]4CCN(c5cnc(C6CCC(=O)NC6=O)cc5C)C[C@@H]4F)CC3)cc21 (stereo partly drawn) [Example 12, 3-(5-((3S,4R)-4-(4-((7^1S,7^2R,E)-1^1,2^6-dimethyl-3-oxo-5^2,5^3-dihydro-1^1H,5^1H-10-oxa-4-aza-5 (2,1)-benzo[d]imidazola-2 (2,4)-pyridina-1 (4,5)-pyrazola-7 (1,2)-cyclopropanacyclodecaphane-5^6-yl)piperazin-1-yl)-3-fluoropiperidin-1-yl)-4-methylpyridin-2-yl)piperidine-2,6-dione]
9.57 | 57.5 | 21 | 89.3 | Cc1cc2cc(n1)-c1cnn(C)c1OCC[C@H]1C[C@@H]1CN1/C(=N/C2=O)Nc2ccc(N3CCN([C@H]4CCN(c5cc(F)c(C6CCC(=O)NC6=O)nc5C)C[C@H]4F)CC3)cc21 (stereo partly drawn) [Example 30, 3-(5-((3R,4S)-4-(4-((7^1S,7^2R,E)-1^1,2^6-dimethyl-3-oxo-5^2,5^3-dihydro-1^1H,5^1H-10-oxa-4-aza-5 (2,1)-benzo[d]imidazola-2 (2,4)-pyridina-1 (4,5)-pyrazola-7 (1,2)-cyclopropanacyclodecaphane-5^6-yl)piperazin-1-yl)-3-fluoropiperidin-1-yl)-3-fluoro-6-methylpyridin-2-yl)piperidine-2,6-dione]
3.41 | 58.9 | 4.02 | 85.7 | COC[C@@H]1CN(c2ccc3c(c2)N2C[C@@H]4C[C@@]4(C)CCOc4c(cnn4C)-c4cc(cc(C)n4)C(=O)/N=C/2N3)CCN1C1CCN(c2cc(F)c([C@H]3CCC(=O)NC3=O)c(F)c2)CC1 [Example 26, (R)-3-(2,6-difluoro-4-(4-((S)-2-(methoxymethyl)-4-((7^1R,7^2S,E)-1^1,2^6,7^2-trimethyl-3-oxo-5^2,5^3-dihydro-1^1H,5^1H-10-oxa-4-aza-5 (2,1)-benzo[d]imidazola-2 (2,4)-pyridina-1 (4,5)-pyrazola-7 (1,2)-cyclopropanacyclodecaphane-5^6-yl)piperazin-1-yl)piperidin-1-yl)phenyl)piperidine-2,6-dione]
2.08 | 49.8 | 3.66 | 80 | Cc1cc2cc(n1)-c1cnn(C)c1OCC[C@H]1C[C@@H]1CN1/C(=N/C2=O)Nc2ccc(N3CCN(C4CN(C5CCN(c6c(C)cc(C7CCC(=O)NC7=O)nc6C)CC5)C4)C[C@H]3C)cc21 (stereo partly drawn) [Example 24, 3-(5-(4-(3-((R)-4-((7^1S,7^2R,E)-1^1,2^6-dimethyl-3-oxo-5^2,5^3-dihydro-1^1H,5^1H-10-oxa-4-aza-5 (2,1)-benzo[d]imidazola-2 (2,4)-pyridina-1 (4,5)-pyrazola-7 (1,2)-cyclopropanacyclodecaphane-5^6-yl)-3-methylpiperazin-1-yl)azetidin-1-yl)piperidin-1-yl)-4,6-dimethylpyridin-2-yl)piperidine-2,6-dione]
0.942 | 86.9 | 0.418 | 86.7 | Cc1cc2cc(n1)-c1cnn(C)c1OCC[C@]1(C)C[C@H]1CN1/C(=N/C2=O)Nc2ccc(N3CCN([C@@H]4CCN(c5ccc(C6CCC(=O)NC6=O)nc5C)C[C@@H]4F)CC3)cc21 (stereo partly drawn) [Example 49, 3-(5-((3S,4R)-3-fluoro-4-(4-((7^1R,7^2S,E)-1^1,2^6,7^2-trimethyl-3-oxo-5^2,5^3-dihydro-1^1H,5^1H-10-oxa-4-aza-5 (2,1)-benzo[d]imidazola-2 (2,4)-pyridina-1 (4,5)-pyrazola-7 (1,2)-cyclopropanacyclodecaphane-5^6-yl)piperazin-1-yl)piperidin-1-yl)-6-methylpyridin-2-yl)piperidine-2,6-dione]
5.8 | 51.4 | 9.37 | 84.4 | CCc1nc(C2CCC(=O)NC2=O)ccc1N1CCC(N2CCN(c3ccc4c(c3)N3C[C@H]5C[C@@H]5CCOc5c(cnn5C)-c5cc(cc(C)n5)C(=O)/N=C/3N4)CC2)CC1 (some centres unmarked) [Example 14, 3-(5-(4-(4-4((7^1S,7^2R,E)-1^1,2^6-dimethyl-3-oxo-5^2,5^3-dihydro-1^1H,5^1H-10-oxa-4-aza-5 (2,1)-benzo[d]imidazola-2 (2,4)-pyridina-1 (4,5)-pyrazola-7 (1,2)-cyclopropanacyclodecaphane-5^6-yl)piperazin-1-yl)piperidin-1-yl)-6-ethylpyridin-2-yl)piperidine-2,6-dione]
